Data from patent US20250025443A1, “COMPOUNDS AND METHODS FOR TREATING CORONA VIRUSES” (CLEAR CREEK BIO, INC., priority 2021, published 2025).
pIC50: −log10 of the molar value.

The compounds below were run against SARS-CoV-2 Papain-Like Protease (PLpro) (Severe acute respiratory syndrome coronavirus 2 (2019-nCoV) (SARS-CoV-2), UniProt P0DTD1) (assay: biochemical). Details: PLpro enzymatic fluorescence assay; class symbols; read-out: PLpro IC50.

Row | Compound | pIC50
1 | Cc1ccc(OC[C@@H]2CCN2C)cc1C(=O)NC1(c2cc(N3CCOCC3)cc3ncccc23)CC1 [Compound 740, (S)-2-Methyl-5-((1-methylazetidin-2-yl)methoxy)-N-(1-(7-morpholinoquinolin-5-yl)cyclopropyl)benzamide] | > 7.00
2 | COc1cc(C2(NC(=O)c3cc(OC[C@@H](C)N)ccc3C)CC2)c2cccnc2c1 [Compound 535, (R)-5-(2-Aminopropoxy)-N-(1-(7-methoxyquinolin-5-yl)cyclopropyl)-2-methylbenzamide] | > 7.00
3 | C=Cc1cc2c(c(C3(NC(=O)c4cc(OC[C@@H]5CCN5C)ccc4C)CC3)c1)CCCN2C [Compound 796, (S)-2-Methyl-N-(1-(1-methyl-7-vinyl-1,2,3,4-tetrahydroquinolin-5-yl)cyclopropyl)-5-((1-methylazetidin-2-yl)methoxy)benzamide] | > 7.00
4 | COc1cc(C2(NC(=O)c3cc(OC[C@@H]4CCN4C)ccc3C)COC2)c2ccccc2c1 [Compound 566] | > 7.00
5 | C=Cc1cc(C2(NC(=O)c3cc(OC[C@@H]4CCN4)ccc3C)CC2)c2cccnc2c1 [Compound 612, (S)-5-(Azetidin-2-ylmethoxy)-2-methyl-N-(1-(7-vinylquinolin-5-yl)cyclopropyl)benzamide] | > 7.00
6 | Cc1ccc(OC[C@@H]2CCN2C)cc1C(=O)NC1(c2cc(OC(F)(F)F)cc3ncccc23)CC1 [Compound 579, (S)-2-Methyl-5-((1-methylazetidin-2-yl)methoxy)-N-(1-(7-(trifluoromethoxy)quinolin-5-yl)cyclopropyl)benzamide] | > 7.00
7 | Cc1ccc(-c2cc(C3(NC(=O)c4cc(OCC5CCN5C)ccc4C)CC3)c3ccccc3c2)s1 (centres unmarked) [Compound 493, 2-Methyl-5-((1-methylazetidin-2-yl)methoxy)-N-(1-(3-(5-methylthiophen-2-yl)naphthalen-1-yl)cyclopropyl)benzamide] | > 7.00
8 | CCc1cc(C2(NC(=O)c3cc(OC[C@@H]4CCN4)ccc3C)CC2)c2cccnc2c1 [Compound 677, (S)-5-(Azetidin-2-ylmethoxy)-N-(1-(7-ethylquinolin-5-yl)cyclopropyl)-2-methylbenzamide] | > 7.00
9 | C=C(c1cc(C2(NC(=O)c3cc(OC[C@@H]4CCN4C)ccc3C)CC2)c2cccnc2c1)C(F)(F)F [Compound 650, (S)-2-Methyl-5-((1-methylazetidin-2-yl)methoxy)-N-(1-(7-(3,3,3-trifluoroprop-1-en-2-yl)quinolin-5-yl)cyclopropyl)benzamide] | > 7.00
10 | Cc1ccc(OC[C@@H]2CCN2)cc1C(=O)NC1(c2cc(-c3cnn(C)c3)cc3ncccc23)CC1 [Compound 665, (S)-5-(Azetidin-2-ylmethoxy)-2-methyl-N-(1-(7-(1-methyl-1H-pyrazol-4-yl)quinolin-5-yl)cyclopropyl)benzamide] | > 7.00
11 | Cc1ccc(OC[C@@H]2CCN2C)cc1C(=O)NC1(c2cc(C#N)cc3ncccc23)CC1 [Compound 738, (S)-N-(1-(7-cyanoquinolin-5-yl)cyclopropyl)-2-methyl-5-((1-methylazetidin-2-yl)methoxy)benzamide] | > 7.00
12 | Cc1ccc(OC[C@@H]2CCN2C)cc1C(=O)NC1(c2cc(C3=CCCC3)cc3ncccc23)CC1 [Compound 609, (S)-N-(1-(7-(Cyclopent-1-en-1-yl)quinolin-5-yl)cyclopropyl)-2-methyl-5-((1-methylazetidin-2-yl)methoxy)benzamide] | > 7.00
13 | [2H]C([2H])([2H])N1CC[C@H]1COc1ccc(C)c(C(=O)NC2(c3cc(-c4cnc(C)o4)cc4ncccc34)CC2)c1 [Compound 782, (S)-2-Methyl-5-((1-(methyl-d3)azetidin-2-yl)methoxy)-N-(1-(7-(2-methyloxazol-5-yl)quinolin-5-yl)cyclopropyl)benzamide] | > 7.00
14 | Cc1ccc(OC[C@@H]2CCN2)cc1C(=O)NC1(c2cc(-c3cn[nH]c3)cc3ncccc23)CC1 [Compound 642, (S)-N-(1-(7-(1H-Pyrazol-4-yl)quinolin-5-yl)cyclopropyl)-5-(azetidin-2-ylmethoxy)-2-methylbenzamide] | > 7.00
15 | Cc1ccc2c(C3(NC(=O)c4cc(OC[C@@H]5CCN5C)ccc4C)CC3)cc(N3CC(C(F)(F)F)C3)cc2n1 [Compound 810, (S)-2-Methyl-N-(1-(2-methyl-7-(3-(trifluoromethyl)azetidin-1-yl)quinolin-5-yl)cyclopropyl)-5-((1-methylazetidin-2-yl)methoxy)benzamide] | > 7.00
16 | Cc1ccc(OC[C@@H]2CCN2)cc1C(=O)NC1(c2cc(-c3ccc4ncnn4c3)cc3ncccc23)CC1 [Compound 685, (S)-N-(1-(7-([1,2,4]Triazolo[1,5-a]pyridin-6-yl)quinolin-5-yl)cyclopropyl)-5-(azetidin-2-ylmethoxy)-2-methylbenzamide] | > 7.00
17 | Cc1ccc(OC[C@@H]2CCN2)cc1C(=O)NC1(c2cc(-c3nc4ccccc4o3)cc3ncccc23)CC1 [Compound 711, (S)-5-(Azetidin-2-ylmethoxy)-N-(1-(7-(benzo[d]oxazol-2-yl)quinolin-5-yl)cyclopropyl)-2-methylbenzamide] | > 7.00

Same assay, conditions: SARS-CoV-2 PLpro enzymatic fluorescence assay; read-out: PLpro IC50

Row | Compound | pIC50
18 | COc1cc(C2(NC(=O)c3cc(Oc4ccncc4)ccc3C)CC2)c2cccnc2c1 [Compound 584, N-(1-(7-Methoxyquinolin-5-yl)cyclopropyl)-2-methyl-5-(pyridin-4-yloxy)benzamide] | 6.00 to 7.00
19 | Cc1ccc(OCCN(C)C)cc1C(=O)NC1(c2cccc3ccc(F)cc23)CC1 [Compound 365, 5-(2-(Dimethylamino)ethoxy)-N-(1-(7-fluoronaphthalen-1-yl)cyclopropyl)-2-methylbenzamide] | > 7.00
20 | Cc1ccc(OCC2CCN2C)cc1C(=O)NC1(c2cc(Br)cc3ccccc23)CC1 (centres unmarked) [Compound 461, N-(1-(3-Bromonaphthalen-1-yl)cyclopropyl)-2-methyl-5-((1-methylazetidin-2-yl)methoxy)benzamide] | > 7.00
21 | Cc1ccc(OC[C@H]2CCCN2C)cc1C(=O)NC1(c2cccc3ncccc23)CC1 [Compound 382, (R)-2-Methyl-5-((1-methylpyrrolidin-2-yl)methoxy)-N-(1-(quinolin-5-yl)cyclopropyl)benzamide] | > 7.00
22 | CCCNc1cc(C2(NC(=O)c3cc(OC[C@@H]4CCN4C)ccc3C)CC2)c2cccnc2c1 [Compound 743, (S)-2-Methyl-5-((1-methylazetidin-2-yl)methoxy)-N-(1-(7-(propylamino)quinolin-5-yl)cyclopropyl)benzamide] | > 7.00
23 | Cc1cc2nc(CN)[nH]c2cc1C(=O)N[C@H](C)c1cccc2ccccc12 [Compound 128, (R)-2-(Aminomethyl)-5-methyl-N-(1-(naphthalen-1-yl)ethyl)-1H-benzo[d]imidazole-6-carboxamide] | 6.00 to 7.00
24 | COc1cc(C2(NC(=O)c3cc(OC[C@@H]4CCCCN4)ccc3C)CC2)c2cccnc2c1 [Compound 550, (S)-N-(1-(7-Methoxyquinolin-5-yl)cyclopropyl)-2-methyl-5-(piperidin-2-ylmethoxy)benzamide] | > 7.00
25 | Cc1ccc(OCC2CCN2C)cc1C(=O)NC1(c2cc(-c3ccccc3)cc3ccccc23)CC1 (centres unmarked) [Compound 475, 2-Methyl-5-((1-methylazetidin-2-yl)methoxy)-N-(1-(3-phenylnaphthalen-1-yl)cyclopropyl)benzamide] | > 7.00
26 | Cc1cc2cc(C(=O)O)[nH]c2cc1C(=O)NC1(c2cccc3ccccc23)CC1 [Compound 204, 5-Methyl-6-((1-(naphthalen-1-yl)cyclopropyl)carbamoyl)-1H-indole-2-carboxylic acid] | 6.00 to 7.00
27 | Cc1ccc(OC[C@@H]2CCN2C)cc1C(=O)NC1(c2cccc3ncccc23)CC1 [Compound 391, (S)-2-Methyl-5-((1-methylazetidin-2-yl)methoxy)-N-(1-(quinolin-5-yl)cyclopropyl)benzamide] | > 7.00
28 | Cc1ccc(OC[C@@H]2CCN2C)cc1C(=O)NC1(c2cc(Cl)cc3ncccc23)CC1 [Compound 624, (S)-N-(1-(7-Chloroquinolin-5-yl)cyclopropyl)-2-methyl-5-((1-methylazetidin-2-yl)methoxy)benzamide] | > 7.00
29 | CNCCOc1ccc(C)c(C(=O)NC2(c3cccc4ccccc34)CNC2)c1 [Compound 453, 2-Methyl-5-(2-(methylamino)ethoxy)-N-(3-(naphthalen-1-yl)azetidin-3-yl)benzamide] | < 5.30
30 | Cc1ccc(N)cc1S(=O)(=O)N[C@H](C)c1cccc2ccccc12 [Compound 138, (R)-5-Amino-2-methyl-N-(1-(naphthalen-1-yl)ethyl)benzenesulfonamide] | < 5.30
31 | Cc1ccc(C2(NC(=O)c3cc(OCCN(C)C)ccc3C)CC2)cc1 [Compound 253, 5-(2-(Dimethylamino)ethoxy)-2-methyl-N-(1-(p-tolyl)cyclopropyl)benzamide] | < 5.30
32 | 5-((1-(2-Hydroxyethyl)azetidin-2-yl)methoxy)-2-methyl-N-(1-(naphthalen-1-yl)cyclopropyl)benzamide [Compound 341] | > 7.00
33 | Cc1ccc(OCCN(C)C)cc1C(=O)NC1(c2cccc(C3CCCC3)c2)CC1 [Compound 276, N-(1-(3-Cyclopentylphenyl)cyclopropyl)-5-(2-(dimethylamino)ethoxy)-2-methylbenzamide] | < 5.30
34 | CNCc1cc2cc(C)c(C(=O)NC3(c4cccc5ccccc45)CC3)cc2[nH]1 [Compound 221] | > 7.00
35 | Cc1ccc(CCN)cc1C(=O)NC1(c2cccc3ccccc23)CC1 [Compound 378, 5-(2-Aminoethyl)-2-methyl-N-(1-(naphthalen-1-yl)cyclopropyl)benzamide] | > 7.00
36 | Cc1ccc(OC[C@@H]2CCN2)cc1C(=O)NC1(c2cccc3cc(F)ccc23)CC1 [Compound 392, (S)-5-(Azetidin-2-ylmethoxy)-N-(1-(6-fluoronaphthalen-1-yl)cyclopropyl)-2-methylbenzamide] | > 7.00
37 | Cc1cc2c(cc1C(=O)NC1(c3cccc4ccccc34)CC1)NCC2 [Compound 207, 5-Methyl-N-(1-(naphthalen-1-yl)cyclopropyl)indoline-6-carboxamide] | 6.00 to 7.00
38 | CN(Cc1ccc2[nH]ncc2c1)C1(c2cccc3ccccc23)CC1 [Compound 184, N-((1H-Indazol-5-yl)methyl)-N-methyl-1-(naphthalen-1-yl)cyclopropane amine] | < 5.30
